Assay results as given in the supplement of paper PMC10307832.

How the values were obtained:
Assay in all cases: relative viability (nuclei count vs DMSO), 5 days (fraction); higher = more cells survive
NCI-H1666 = test system: NCI-H1666
Procedure, shortened: (§1)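 A single step with final 0.05% Triton X-100, 1% formaldehyde and 1 ug/ml Hoechst fixed the cells and stained nuclei 5 days after treatment. Lung cancer cell lines in 1536-well plates had been treated by pin tool the day after seeding with one drug alone or a fixed anchor-drug dose plus five library-drug doses (not always all listed) in √10 steps, and nuclei were counted on 4× images. Relative viability is the ratio of nuclei in treated wells to nuclei in vehicle wells, taken as the median of duplicate plates.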

NCI-H1993 = test system: NCI-H1993
Procedure, shortened: as §1

NCI-H2085 = test system: NCI-H2085
Procedure, shortened: as §1

NCI-H2170 = test system: NCI-H2170
Procedure, shortened: as §1

NCI-H2228 = test system: NCI-H2228
Procedure, shortened: as §1

NCI-H2342 = test system: NCI-H2342
Procedure, shortened: as §1

NCI-H2347 = test system: NCI-H2347
Procedure, shortened: as §1

NCI-H23 = test system: NCI-H23
Procedure, shortened: as §1

NCI-H322M = test system: NCI-H322M
Procedure, shortened: as §1

NCI-H520 = test system: NCI-H520
Procedure, shortened: as §1

NCI-H647 = test system: NCI-H647
Procedure, shortened: as §1

NCI-H661 = test system: NCI-H661
Procedure, shortened: as §1

NCI-H838 = test system: NCI-H838
Procedure, shortened: as §1

`CCCCCCCCCCCC1=C(O)C(=O)C=C(O)C1=O` [Embelin] + Cc1cc(Nc2cc(N3CCN(C)CC3)nc(Sc3ccc(NC(=O)C4CC4)cc3)n2)n[nH]1 [Tozasertib] (partner 0.1 µM) gave a relative viability (NCI-H1666; first compound 2.53 µM) of 0.639, a relative viability (NCI-H1666; first compound 8 µM) of 0.615 and a relative viability (NCI-H1993; first compound 0.08 µM) of 0.523. For the same compound, the relative viability (NCI-H1993; first compound 0.8 µM) was 0.593, the relative viability (NCI-H1993; first compound 2.53 µM) was 0.594 and the relative viability (NCI-H1993; first compound 8 µM) was 0.548. It also gave a relative viability (NCI-H2085; first compound 0.08 µM) of 0.784, a relative viability (NCI-H2085; first compound 0.8 µM) of 0.939 and a relative viability (NCI-H2085; first compound 2.53 µM) of 0.884. The relative viability (NCI-H2085; first compound 8 µM) was 0.859, the relative viability (NCI-H2170; first compound 0.08 µM) was 0.798 and the relative viability (NCI-H2170; first compound 0.8 µM) was 0.761. It also gave a relative viability (NCI-H2170; first compound 2.53 µM) of 0.818, a relative viability (NCI-H2170; first compound 8 µM) of 0.731 and a relative viability (NCI-H2228; first compound 0.08 µM) of 0.269. It also gave a relative viability (NCI-H2228; first compound 0.8 µM) of 0.247, a relative viability (NCI-H2228; first compound 2.53 µM) of 0.309 and a relative viability (NCI-H2228; first compound 8 µM) of 0.238. For the same compound, the relative viability (NCI-H2342; first compound 0.08 µM) was 0.6, the relative viability (NCI-H2342; first compound 0.8 µM) was 0.641 and the relative viability (NCI-H2342; first compound 2.53 µM) was 0.527. It also gave a relative viability (NCI-H2342; first compound 8 µM) of 0.479, a relative viability (NCI-H2347; first compound 0.08 µM) of 0.608 and a relative viability (NCI-H2347; first compound 0.8 µM) of 0.465. For the same compound, the relative viability (NCI-H2347; first compound 2.53 µM) was 0.575, the relative viability (NCI-H2347; first compound 8 µM) was 0.612 and the relative viability (NCI-H23; first compound 0.08 µM) was 0.47. It also gave a relative viability (NCI-H23; first compound 0.8 µM) of 0.462, a relative viability (NCI-H23; first compound 2.53 µM) of 0.36 and a relative viability (NCI-H23; first compound 8 µM) of 0.34. It also gave a relative viability (NCI-H322M; first compound 0.08 µM) of 0.526, a relative viability (NCI-H322M; first compound 0.8 µM) of 0.52 and a relative viability (NCI-H322M; first compound 2.53 µM) of 0.521. It also gave a relative viability (NCI-H322M; first compound 8 µM) of 0.503, a relative viability (NCI-H520; first compound 0.08 µM) of 0.56 and a relative viability (NCI-H520; first compound 0.8 µM) of 0.459. For the same compound, the relative viability (NCI-H520; first compound 2.53 µM) was 0.467, the relative viability (NCI-H520; first compound 8 µM) was 0.376 and the relative viability (NCI-H647; first compound 0.08 µM) was 0.361. The relative viability (NCI-H647; first compound 0.8 µM) was 0.26, the relative viability (NCI-H647; first compound 2.53 µM) was 0.288 and the relative viability (NCI-H647; first compound 8 µM) was 0.245. The relative viability (NCI-H661; first compound 0.08 µM) was 0.366, the relative viability (NCI-H661; first compound 0.8 µM) was 0.34 and the relative viability (NCI-H661; first compound 2.53 µM) was 0.318. It also gave a relative viability (NCI-H661; first compound 8 µM) of 0.337, a relative viability (NCI-H838; first compound 0.08 µM) of 0.298 and a relative viability (NCI-H838; first compound 0.8 µM) of 0.272. The relative viability (NCI-H838; first compound 2.53 µM) was 0.282 and the relative viability (NCI-H838; first compound 8 µM) was 0.295.
